{"source": "patent US8362259B2", "about": "“Process for the preparation of esomeprazole magnesium in a stable form” (Lek Pharmaceuticals, D.D., priority 2008, dated 2013)", "assay_type_in_all_cases": "physicochemical", "key": {"[1]": {"experiment": "stress stability testing, HPLC related substances and degradation products", "set-up": "HPLC related substance RRt 0.10 / HPLC related substance RRt 0.11 / HPLC related substance RRt 0.16 / HPLC related substance RRt 0.20 / HPLC related substance RRt 1.45 / HPLC related substance RRt 1.59 / HPLC related substance RRt 1.61 / HPLC related substance RRt 2.20 / HPLC related substance RRt 2.25: unit not given here", "description": "Illustratively, it was tested under regular pharmaceutical tests such as stress condition test (Table 1) and was compared with chemical stability of the starting amorphous esomeprazole magnesium or esomeprazole Mg dihydrate form B (Table 2)."}, "[2]": {"experiment": "removal of residual solvents by drying (Comparative Example 2)", "conditions": "drying at high temperatures", "from_the_text": "Further removing of residual solvents was studied on amorphous esomeprazole magnesium by drying."}, "[3]": {"experiment": "physical (polymorphic) stability under stress conditions", "conditions": "14 days 40° C./75% relative humidity, 7 days 60° C.", "description": "In addition, also physical stability of esomeprazole magnesium dihydrate form A obtained according to the present invention was tested."}, "[4]": {"conditions": "40° C./75 RH, open dish, 14 days, open vial"}}}
{"compound": "COc1ccc2[n-]c([S@@+]([O-])Cc3ncc(C)c(OC)c3C)nc2c1.COc1ccc2[n-]c([S@@+]([O-])Cc3ncc(C)c(OC)c3C)nc2c1.O.O.[Mg+2]", "values": [{"measurement": "chemical stability compared among the three forms of esomeprazole magnesium", "setting": "[1]; stress stability testing, all three forms compared", "value": "chemically the most stable form"}]}
{"compound": "magnesium bis(5-methoxy-2-[(S)-[(4-methoxy-3,5-dimethyl-2-pyridinyl)methyl]sulfinyl]-1H-benzimidazole) [Amorphous esomeprazole magnesium]", "values": [{"measurement": "chemical stability on drying to remove residual solvents", "setting": "[2]", "value": "accompanied by chemical decomposition"}, {"measurement": "HPLC - Related substances and degradation products: Sum", "setting": "[1]; [4]", "value": 0.43}, {"measurement": "HPLC related substance OMP-benzimidazole (Ph. Eur. Imp. A)", "setting": "[1]; [4]", "value": 0.04}, {"measurement": "HPLC related substance RRt 0.10", "setting": "[1]; [4]", "value": 0.04}, {"measurement": "HPLC related substance RRt 0.11", "setting": "[1]; [4]", "value": 0.09}, {"measurement": "HPLC related substance RRt 0.16", "setting": "[1]; [4]", "value": 0.07}, {"measurement": "HPLC related substance RRt 0.20", "setting": "[1]; [4]", "value": 0.04}, {"measurement": "HPLC related substance RRt 1.45", "setting": "[1]; [4]", "value": 0.06}, {"measurement": "HPLC related substance RRt 2.20", "setting": "[1]; [4]", "value": 0.09}, {"measurement": "HPLC - Related substances and degradation products: Sum", "setting": "[1]; 60° C., 7 days, vial", "value": 0.79}, {"measurement": "HPLC related substance OMP-N-oxide (Ph. Eur. Imp. E)", "setting": "[1]; 60° C., 7 days, vial", "value": 0.03}, {"measurement": "HPLC related substance OMP-N-sufone (Ph. Eur. Imp. D)", "setting": "[1]; 60° C., 7 days, vial", "value": 0.03}, {"measurement": "HPLC related substance OMP-benzimidazole (Ph. Eur. Imp. A)", "setting": "[1]; 60° C., 7 days, vial", "value": 0.06}, {"measurement": "HPLC related substance RRt 0.11", "setting": "[1]; 60° C., 7 days, vial", "value": 0.12}, {"measurement": "HPLC related substance RRt 0.16", "setting": "[1]; 60° C., 7 days, vial", "value": 0.18}, {"measurement": "HPLC related substance RRt 0.20", "setting": "[1]; 60° C., 7 days, vial", "value": 0.06}, {"measurement": "HPLC related substance RRt 1.45", "setting": "[1]; 60° C., 7 days, vial", "value": 0.15}, {"measurement": "HPLC related substance RRt 2.20", "setting": "[1]; 60° C., 7 days, vial", "value": 0.07}, {"measurement": "HPLC related substance RRt 2.25", "setting": "[1]; 60° C., 7 days, vial", "value": 0.09}, {"measurement": "HPLC - Related substances and degradation products: Sum", "setting": "[1]; Initial analysis", "value": 0.10}, {"measurement": "HPLC related substance RRt 0.16", "setting": "[1]; Initial analysis", "value": 0.06}, {"measurement": "HPLC related substance RRt 1.45", "setting": "[1]; Initial analysis", "value": 0.04}]}
{"compound": "magnesium bis(5-methoxy-2-[(S)-[(4-methoxy-3,5-dimethyl-2-pyridinyl)methyl]sulfinyl]-1H-benzimidazole) [Esomeprazole magnesium dihydrate form A]", "values": [{"measurement": "physical stability of the polymorphic form", "setting": "[3]", "value": "stable"}, {"measurement": "Chromatographic purity", "setting": "[1]; [4]", "value": 99.85}, {"measurement": "HPLC - Related substances and degradation products: Sum", "setting": "[1]; [4]", "value": "≦0.05"}, {"measurement": "Chromatographic purity", "setting": "[1]; 60° C., 7 days, vial", "value": 99.82}, {"measurement": "HPLC - Related substances and degradation products: Sum", "setting": "[1]; 60° C., 7 days, vial", "value": "≦0.05"}, {"measurement": "Chromatographic purity", "setting": "[1]; Initial analysis", "value": 99.85}]}
{"compound": "magnesium bis(5-methoxy-2-[(S)-[(4-methoxy-3,5-dimethyl-2-pyridinyl)methyl]sulfinyl]-1H-benzimidazole) [Esomeprazole magnesium dihydrate form B]", "values": [{"measurement": "HPLC - Related substances and degradation products: Sum", "setting": "[1]; [4]", "value": 0.14}, {"measurement": "HPLC related substance RRt 1.59", "setting": "[1]; [4]", "value": 0.06}, {"measurement": "HPLC related substance RRt 1.61", "setting": "[1]; [4]", "value": 0.06}, {"measurement": "HPLC - Related substances and degradation products: Sum", "setting": "[1]; 60° C., 7 days, vial", "value": 0.07}, {"measurement": "HPLC related substance Omeprazole-N-methyl", "setting": "[1]; 60° C., 7 days, vial", "value": 0.07}, {"measurement": "HPLC - Related substances and degradation products: Sum", "setting": "[1]; Initial analysis", "value": "<0.05"}]}
